Consider eight molecules from PubChem BioAssay (NCI).

Several values for one entry are separate records, joined by “and”; a condition that tells them apart may be missing. Equal entries are not always repeated.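 Tested at 5 concentrations; 48 h exposure; 96-well plates; endpoints linearly interpolated, else capped at highest concentration. GI50: concentration for 50% inhibition of growth. TGI marks complete inhibition of growth.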

Test systems include OVCAR-4 ovarian; ACHN renal; OVCAR-8 ovarian; MOLT-4 leukemia; 786-0 renal; HOP-92 NSCLC; NCI-H23 lung; HCT-15 colon; MALME-3M melanoma; K-562 leukemia.
What all share (test): DTP human tumour cell line panel, 48 h

A word on the GI50: it is the concentration at which growth is held to half of that of the control. A word on the TGI: it is the concentration at which net growth stops. Higher therefore signals lower sensitivity of the cells. Consider `COc1cc(NCCCCN=C(N)NC(N)=NC(C)C)c2ncccc2c1`, for which the GI50 is 79.7 nM in the assay on OVCAR-4 ovarian; over 73.7 µM in the assay on ACHN renal; 8180 nM in the assay with OVCAR-8 ovarian; 3.28 µM in the assay on MOLT-4 leukemia; 31000 nM in the assay on 786-0 renal; 1280 nM with HOP-92 NSCLC. Also, the GI50 is 984 nM in the assay with NCI-H23 lung, over 100000 nM in the assay on HCT-15 colon, 1140 nM in the assay on MALME-3M melanoma and 3650 nM in the assay on K-562 leukemia. Besides, the TGI is 2.15 µM in the assay with OVCAR-4 ovarian; over 100 µM in the assay with ACHN renal; 27.7 µM in the assay on OVCAR-8 ovarian; 16.6 µM in the assay with MOLT-4 leukemia; over 100 µM in the assay with 786-0 renal; 12.5 µM in the assay with HOP-92 NSCLC. For the same molecule, the total growth inhibition concentration (TGI) in the assay on NCI-H23 lung is 10.1 µM; in the assay with HCT-15 colon, over 100 µM; with MALME-3M melanoma it was 4.6 µM; with K-562 leukemia, 25.8 µM.

Regarding `CCOC(=O)c1sc2nc3sc(N=Nc4ccc(Cl)cc4)c(O)n3c(=S)c2c1C`, the GI50 in the assay with OVCAR-4 ovarian is 47400 nM; with ACHN renal it was 16.5 µM; in the assay with OVCAR-8 ovarian, 29400 nM; in the assay with MOLT-4 leukemia it was over 100 µM; with 786-0 renal, 32400 nM; with HOP-92 NSCLC, 7470 nM. The GI50 was 14200 nM in the assay on NCI-H23 lung, 18300 nM in the assay with HCT-15 colon, 34900 nM in the assay on MALME-3M melanoma and over 100000 nM with K-562 leukemia. Further, the total growth inhibition concentration (TGI) with OVCAR-4 ovarian was over 100 µM; in the assay on ACHN renal, 54.3 µM; in the assay with OVCAR-8 ovarian, 95.6 µM; with MOLT-4 leukemia, over 100 µM; in the assay with 786-0 renal, over 100 µM; in the assay on HOP-92 NSCLC, 45.8 µM. Also, the TGI was 42.4 µM in the assay on NCI-H23 lung, 49.3 µM in the assay with HCT-15 colon, 95 µM with MALME-3M melanoma and over 100 µM with K-562 leukemia.

As for `CCOc1ccc([C@@H]2[C@@H](Oc3ccccc3)C(=O)N2c2cc(OC)c(OC)c(OC)c2)cc1`, the GI50 in the assay on OVCAR-4 ovarian was 928 nM; in the assay on ACHN renal, 0.07 µM; in the assay on OVCAR-8 ovarian it was 46.3 nM; in the assay with MOLT-4 leukemia, 0.17 µM; with 786-0 renal, 89.6 nM; in the assay with HOP-92 NSCLC, 642 nM. Moreover, the GI50 with NCI-H23 lung is 467 nM; with HCT-15 colon it was 186 nM; in the assay with MALME-3M melanoma, over 100000 nM; in the assay on K-562 leukemia, 36.7 nM. Besides, the TGI in the assay on OVCAR-4 ovarian, with ACHN renal, in the assay on OVCAR-8 ovarian, in the assay on MOLT-4 leukemia, in the assay with 786-0 renal and with HOP-92 NSCLC was over 100 µM in each case. For the same molecule, the TGI with NCI-H23 lung, with HCT-15 colon, with MALME-3M melanoma and with K-562 leukemia was over 100 µM in each case.

Turning to `CCCCCC(O)C1C(=O)OC(C)C(O)/C=C/C=C/C=C/C=C\C=C(\C)C(O)CC(O)CC(O)CC(O)CC(O)CC(O)CC1O` (stereo not given), the GI50 in the assay with OVCAR-4 ovarian is over 100000 nM; in the assay on ACHN renal, over 100 µM; with OVCAR-8 ovarian it was over 100000 nM; with MOLT-4 leukemia it was over 100 µM; in the assay on 786-0 renal it was over 100000 nM; with HOP-92 NSCLC, over 100000 nM. Further, the GI50 in the assay with NCI-H23 lung, with HCT-15 colon, with MALME-3M melanoma and with K-562 leukemia was over 100000 nM each time. Further, the TGI in the assay on OVCAR-4 ovarian was 26.3 µM and > 100 µM; with ACHN renal it was over 100 µM; with OVCAR-8 ovarian, over 100 µM; with MOLT-4 leukemia it was over 100 µM; in the assay on 786-0 renal, over 100 µM; in the assay on HOP-92 NSCLC it was over 100 µM. In addition, the TGI with NCI-H23 lung, with HCT-15 colon, with MALME-3M melanoma and in the assay with K-562 leukemia was over 100 µM throughout.

As for `COc1ccc(/C(=N/NC(=O)NN)C(c2ccc(OC)cc2)C2(O)CNc3c(Cl)cc(Cl)cc32)cc1` (stereo not given), the concentration for total growth inhibition (TGI) in the assay with OVCAR-4 ovarian, with ACHN renal, with OVCAR-8 ovarian, in the assay on MOLT-4 leukemia, in the assay on 786-0 renal and with HOP-92 NSCLC was over 100 µM throughout. Moreover, the TGI with NCI-H23 lung, in the assay with HCT-15 colon, in the assay on MALME-3M melanoma and with K-562 leukemia was over 100 µM in each case.

As to `COc1cc(C(=O)/C=C/c2cc(C(=O)c3cc(OC)c(OC)c(OC)c3)ccc2OC)ccc1N`, the GI50 in the assay with OVCAR-4 ovarian is 982 nM; in the assay on ACHN renal, 1.08 µM; with OVCAR-8 ovarian, 846 nM; in the assay with MOLT-4 leukemia, 0.616 µM; with 786-0 renal, 1540 nM; in the assay with HOP-92 NSCLC, 2940 nM. Also, the GI50 was 1420 nM in the assay on NCI-H23 lung, 370 nM in the assay on HCT-15 colon, 1470 nM in the assay on MALME-3M melanoma and 386 nM in the assay with K-562 leukemia. The TGI was over 100 µM with OVCAR-4 ovarian; 4.49 µM in the assay with ACHN renal; 6.12 µM in the assay with OVCAR-8 ovarian; over 100 µM in the assay on MOLT-4 leukemia; 4.08 µM with 786-0 renal; over 100 µM in the assay with HOP-92 NSCLC. In addition, the TGI is 4.1 µM with NCI-H23 lung, 2.12 µM with HCT-15 colon, 4.16 µM in the assay with MALME-3M melanoma and over 100 µM in the assay with K-562 leukemia.

For the molecule `CC(C)(C)NN=C1C(C)(C)C(=NNC(C)(C)C)C1(C)C`, the TGI in the assay on OVCAR-4 ovarian, in the assay with ACHN renal, in the assay on OVCAR-8 ovarian, in the assay on MOLT-4 leukemia, in the assay with 786-0 renal and in the assay on HOP-92 NSCLC was over 100 µM throughout. For the same molecule, the TGI with NCI-H23 lung, with HCT-15 colon, with MALME-3M melanoma and in the assay on K-562 leukemia was over 100 µM throughout.

For `N#Cc1c(-c2ccc(Cl)cc2)n(O)c2ccccc12`, the GI50 is 3010 nM in the assay on OVCAR-4 ovarian; 3.68 µM in the assay with ACHN renal; 2650 nM in the assay with OVCAR-8 ovarian; 3.61 µM with MOLT-4 leukemia; 2240 nM with 786-0 renal; 1020 nM in the assay on HOP-92 NSCLC. The GI50 was 2020 nM with NCI-H23 lung, 1800 nM with HCT-15 colon, 1880 nM in the assay on MALME-3M melanoma and 949 nM in the assay on K-562 leukemia. The TGI was over 100 µM in the assay on OVCAR-4 ovarian; 91.2 µM with ACHN renal; 8.78 µM in the assay with OVCAR-8 ovarian; 15.5 µM in the assay with MOLT-4 leukemia; 7.04 µM with 786-0 renal; 3.5 µM in the assay with HOP-92 NSCLC. For the same molecule, the concentration for total growth inhibition (TGI) with NCI-H23 lung was 6.9 µM; in the assay with HCT-15 colon, 18.9 µM; with MALME-3M melanoma it was 9.02 µM; in the assay on K-562 leukemia, over 100 µM.
